Test results published in patent US5869675A, “Lactacystin derivatives” (The Kitasato Institute, priority 1994, dated 1999).
Where two headings read alike, the source gives them in different places.

Key:
Neuro 2A cells [1] = experiment: Activity of neuritogenesis (bipolar outgrowth of neurites) in Neuro 2A cells, minimum effective dose; type: cell-based, mouse; conditions: for minimal effective concentration: Mus musculus, N2a, read-out: Minimum effective dose (A)
Experimental: (§1) Morphological changes of Neuro 2A cells are observed according to the method of Baglioni et al. [J. Biol. Chem., 266: 18620 (1991)].
Neuro 2A cells were plated at a density of 1×10^4 cells/cm^2 in a 24-hole plate, and cultured in MEM-H with 10% FBS.

[2] = Cytotoxic action on Neuro 2A cells; type: cell-based; conditions: mouse, no attached cells observed in more than 2/3 of the whole cells, read-out: Cytotoxicity (B)
Experimental: as §1
Neuro 2A cells were plated at a density of 1×10^4 cells/cm^2 in a 24-hole plate, and cultured in MEM-H with 10% FBS. On the next day, lactacystin or lactacystin derivatives were added at the concentration of 0.05-100 μM, and morphological changes of the cells with time were observed by phase contrast microscopy.

Neuro 2A cells [3] = experiment: Selective toxicity (ratio of cytotoxicity/minimum effective dose); type: cell-based, mouse
Source text: 2. No specific test method for selective toxicity of the compounds is known, therefore the selective toxicity is defined as the ratio of cytotoxicity/minimum effective dose.

[4] = test system: intracelluar cAMP level in Neuro 2A; experiment: Transient increase in the intracellular cAMP level in mouse neuroblastoma cell line Neuro 2A; type: cell-based
[5] = cited from earlier work
[6] = Neuro 2A cells, concentration in which approximately 20% of whole cells showed bipolar outgrowth of neurites

Structure (SMILES)	minimal effective concentration (Neuro 2A cells [1]; [6])	MCC [2]	Selective toxicity (B/A) (Neuro 2A cells [3])	minimal effective concentration (Neuro 2A cells [1])	neuritogenesis (Neuro 2A cells [1]; mouse neuroblastoma cell line Neuro 2A)	intracelluar cAMP level [4]	cytotoxicity ([5]; known compound)	neuritogenesis activity ([5]; known from literature)
COC(=O)[C@]1([C@@H](O)C(C)C)NC(=O)[C@H](C)[C@@H]1O [Example 1, .tau.-lactam methyl ester]	1.56 µM	12.5 µM	8					
CC(C)[C@H](O)[C@@]1(C(=O)SCCC(=O)O)NC(=O)[C@H](C)[C@@H]1O [Example 2, des-N-acetylaminolactacystin]	0.2 µM	1.56 µM	8					
CCOC(=O)CCSC(=O)[C@]1([C@@H](O)C(C)C)NC(=O)[C@H](C)[C@@H]1O [Example 3, des-N-acetylaminolactacystin ethyl ester]	0.2 µM	3.12 µM	16					
CC(C)[C@H](O)[C@@]1(C(=O)SCCN)NC(=O)[C@H](C)[C@@H]1O [Example 4, des-N-acetyldescarboxylactacystin]	3.12 µM	25 µM	8					
COC(=O)[C@H](CSC(=O)[C@]1([C@@H](O)C(C)C)NC(=O)[C@H](C)[C@@H]1O)NC(C)=O [Example 5, lactacystin methyl ester]	0.78 µM	6.25 µM	8					
C=CCOC(=O)[C@H](CSC(=O)[C@]1([C@@H](O)C(C)C)NC(=O)[C@H](C)[C@@H]1O)NC(C)=O [Example 6, lactacystin allyl ester]	0.2 µM	6.25 µM	31					
CCSC(=O)[C@]1([C@@H](O)C(C)C)NC(=O)[C@H](C)[C@@H]1O [Example 7, 3-hydroxy-2-(1-hydroxy-2-methylpropyl)-4-methyl-5-oxo-2-pyrrolidine-ethanethiocarboxylate]	0.2 µM	1.56 µM	8					
CCCSC(=O)[C@]1([C@@H](O)C(C)C)NC(=O)[C@H](C)[C@@H]1O [Example 8]	0.2 µM	3.12 µM	16					
CC(C)SC(=O)[C@]1([C@@H](O)C(C)C)NC(=O)[C@H](C)[C@@H]1O [Example 9, 3-hydroxy-2-(1-hydroxy-2-methylpropyl)-4-methyl-5-oxo-2-pyrrolidine-iso-propanethiocarboxylate]	0.4 µM	12.5 µM	31					
CCCCSC(=O)[C@]1([C@@H](O)C(C)C)NC(=O)[C@H](C)[C@@H]1O [Example 10, 3-hydroxy-2-(1-hydroxy-2-methylpropyl)-4-methyl-5-oxo-2-pyrrolidine-butanethiocarboxylate]	0.4 µM	12.5 µM	31					
CCC(C)SC(=O)[C@]1([C@@H](O)C(C)C)NC(=O)[C@H](C)[C@@H]1O (stereo partly shown) [Example 11, 3-hydroxy-2-(1-hydroxy-2-methylpropyl)-4-methyl-5-oxo-2-pyrrolidine-1-methyl-1-propanethiocarboxylate]	0.4 µM	12.5 µM	31					
CCCCCSC(=O)[C@]1([C@@H](O)C(C)C)NC(=O)[C@H](C)[C@@H]1O [Example 12, 3-hydroxy-2-(1-hydroxy-2-methylpropyl)-4-methyl-5-oxo-2-pyrrolidine-1-pentanethiocarboxylate]	0.8 µM	12.5 µM	16					
CC(C)[C@H](O)[C@@]1(C(=O)Sc2ccccc2)NC(=O)[C@H](C)[C@@H]1O [Example 13, 3-hydroxy-2-(1-hydroxy-2-methylpropyl)-4-methyl-5-oxo-2-pyrrolidine-phenythiocarboxylate]		12.5 µM	16	0.8 µM				
CC(C)[C@H](O)[C@@]1(C(=O)SCCO)NC(=O)[C@H](C)[C@@H]1O [Example 14, 3-hydroxy-2-(1-hydroxy-2-methylpropyl)-4-methyl-5-oxo-2-pyrrolidine-2-hydroxyethanethiocarboxylate]	3.12 µM	25 µM	8					
CC(C)[C@H](O)[C@@]1(C(=O)SCCCO)NC(=O)[C@H](C)[C@@H]1O [Example 15, 3-hydroxy-2-(1-hydroxy-2-methylpropyl)-4-methyl-5-oxo-2-pyrrolidine-3-hydroxypropanethiocarboxylate]	0.4 µM	12.5 µM	31					
CC(C)[C@H](O)[C@@]1(C(=O)Sc2ccc(O)cc2)NC(=O)[C@H](C)[C@@H]1O [Example 16, 3-hydroxy-2-(1-hydroxy-2-methylpropyl)-4-methyl-5-oxo-2-pyrrolidine-4-hydroxyphenylthiocarboxylate]	0.4 µM	12.5 µM	31					
CNCCSC(=O)[C@]1([C@@H](O)C(C)C)NC(=O)[C@H](C)[C@@H]1O [Example 17, 3-hydroxy-2-(1-hydroxy-2-methylpropyl)-4-methyl-5-oxo-2-pyrrolidine-2-N-methylethanethiocarboxylate]	0.8 µM	6.25 µM	8					
CC(C)[C@H](O)[C@@]1(C(=O)SCCN(C)C)NC(=O)[C@H](C)[C@@H]1O [Example 18, 3-hydroxy-2-(1-hydroxy-2-methylpropyl)-4-methyl-5-oxo-2-pyrrolidine-2-N-dimethyl-ethanethiocarboxylate]	0.2 µM	6.25 µM	31					
CC(C)[C@H](O)[C@@]1(C(=O)SCC(=O)O)NC(=O)[C@H](C)[C@@H]1O [Example 19, 3-hydroxy-2-(1-hydroxy-2-methylpropyl)-4-methyl-5-oxo-2-pyrrolidine-1-carboxymethylthiocarboxylate]	0.4 µM	12.5 µM	31					
COC(=O)CSC(=O)[C@]1([C@@H](O)C(C)C)NC(=O)[C@H](C)[C@@H]1O [Example 20, 3-hydroxy-2-(1-hydroxy-2-methylpropyl)-4-methyl-5-oxo-2-pyrrolidine-methoxycarbonylthiocarboxylate]	0.8 µM	12.5 µM	16					
COC(=O)CCSC(=O)[C@]1([C@@H](O)C(C)C)NC(=O)[C@H](C)[C@@H]1O [Example 21, 3-hydroxy-2-(1-hydroxy-2-methylpropyl)-4-methyl-5-oxo-2-pyrrolidine-methoxycarbonylethylthiocarboxylate]	0.2 µM	1.56 µM	8					
CC(C)[C@H](O)[C@@]1(C(=O)Sc2ccccn2)NC(=O)[C@H](C)[C@@H]1O [Example 22, 3-hydroxy-2-(1-hydroxy-2-methylpropyl)-4-methyl-5-oxo-2-pyrrolidine-2-pyridylthiocarboxylate]	0.8 µM	12.5 µM	16					
CC(C)[C@H](O)[C@@]1(C(=O)Sc2ccncc2)NC(=O)[C@H](C)[C@@H]1O [Example 23, 3-hydroxy-2-(1-hydroxy-2-methylpropyl)-4-methyl-5-oxo-2-pyrrolidine-4-pyridylthiocarboxylate]	0.8 µM	12.5 µM	16					
CC(C)[C@H](O)[C@@]1(C(=O)SCCC(N)C(=O)O)NC(=O)[C@H](C)[C@@H]1O (stereo partly shown) [Example 24]	1.56 µM	25 µM	16					
CC(SC(=O)[C@]1([C@@H](O)C(C)C)NC(=O)[C@H](C)[C@@H]1O)C(=O)NCC(=O)O (stereo partly shown) [Example 25, 2-S-propionylglycine-3-hydroxy-2-(1-hydroxy-2-methylpropyl)-4-methyl-5-oxo-2-pyrrolidinecarboxylate]	1.56 µM	12.5 µM	8					
CC(C)[C@H](O)[C@@]1(C(=O)SC[C@H](NC(=O)CC[C@H](N)C(=O)O)C(=O)NCC(=O)O)NC(=O)[C@H](C)[C@@H]1O [Example 26, glutathione-3-hydroxy-2-(1-hydroxy-2-methylpropyl)-4-methyl-5-oxo-2-pyrrolidinethiocarboxylate]	0.8 µM	25 µM	31					
CC(=O)N[C@@H](CSC(=O)[C@]1([C@@H](O)C(C)C)NC(=O)[C@H](C)[C@@H]1O)C(=O)O [lactacystin]					induce neuritogenesis	cause a transient increase in the intracelluar cAMP level	highly cytotoxic	having neuritogenesis activity
